Legend:
Apis mellifera = settings: acute, mortality
Canidae = settings: oral, Dog Other, neurology
Colinus virginianus = settings: short-term; oral; diet; reproduction
Lepomis macrochirus = settings: acute; duration: 96 hours; mortality
Brassica rapa = settings: acute; duration: 21 days; seedling emergence
Pimephales promelas = settings: chronic/long-term; duration: 32 days
[1] = subchronic; duration: 56 days
Daphnia magna = settings: chronic/long-term; duration: 21 days
Rattus norvegicus = settings: for LD50: acute
Aphidius rhopalosiphi = experiment: LR50; higher = less toxic; settings: not reported; mortality
[2] = short-term, oral, feed, mortality

CNC(=O)Oc1cccc(N=CN(C)C)c1.Cl [Formetanate hydrochloride]
LD50 (Anas platyrhynchos; acute, oral, unspecified, mortality): 11.5 mg/kg
NOEC (Anas platyrhynchos; reproductive): 15.6 mg/kg-day
LC50 (Anas platyrhynchos; [2]): 116 mg/kg-day
NOEC (Anas platyrhynchos; [2]): 22.7 mg/kg-day
LD50 (Apis mellifera; dermal): 1.02 µg/piece
LD50 (Apis mellifera; duration: 48 hours, oral, unspecified): 0.16 µg/piece
LC50 (Tagia sp.; acute, duration: 14 days, mortality): 1050 mg/kg
NOEC (Tagia sp.; chronic/long-term): 1.8 mg/kg
NOAEL (Canidae; chronic, duration: 1 years): 0.4 mg/kg-day
NOAEL (Canidae; short-term, duration: 29 days): 0.4 mg/kg-day
NOEC (Colinus virginianus): 15.6 mg/kg-day
LC50 (Lepomis macrochirus): 2.76 µg/mL
NOEC (Brassica rapa): > 500 g/ha
NOEC (Pimephales promelas): 0.48 mg/L
NOAEC [1]: 0.703 mg/L
NOEC (Daphnia magna): 0.0011 mg/L
LD50 (Rattus norvegicus; oral, F, mortality): 14.8 mg/kg
LD50 (Rattus norvegicus; oral, M/F, mortality): 21 mg/kg
NOEL (Rattus norvegicus; reproduction developmental, mortality): 22.4 mg/kg-day
NOAEL (Rattus norvegicus; short-term, duration: 28 days, oral, gavage, F, clinical chemistry): 0.5 mg/kg-day
LR50 (Aphidius rhopalosiphi): 0.21 g/ha

Source: EPA's ToxValDB 9.5 (doi:10.2903/j.efsa.2006.69r)
